Laboratory results reported in PubChem BioAssay (NCI).
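How tested: cells in 96-well plates exposed to compound for 48 hours at five concentrations. At the GI50, growth is halved. TGI denotes the concentration required for complete inhibition of growth.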

Columns and labels:
Experiment in all cases: NCI tumour cell line growth inhibition, 48 h
A498 renal = test system: A498 renal
HOP-92 NSCLC = test system: HOP-92 NSCLC
SK-MEL-5 melanoma = test system: SK-MEL-5 melanoma
SN12C renal = test system: SN12C renal
HOP-62 NSCLC = test system: HOP-62 NSCLC
UACC-62 melanoma = test system: UACC-62 melanoma
TK-10 renal = test system: TK-10 renal
HT29 colon = test system: HT29 colon
PC-3 prostate = test system: PC-3 prostate
OVCAR-5 ovarian = test system: OVCAR-5 ovarian
KM12 colon = test system: KM12 colon
SF-539 CNS = test system: SF-539 CNS
M14 melanoma = test system: M14 melanoma
K-562 leukemia = test system: K-562 leukemia
786-0 renal = test system: 786-0 renal
OVCAR-3 ovarian = test system: OVCAR-3 ovarian
NCI-H460 lung = test system: NCI-H460 lung
NCI-H522 lung = test system: NCI-H522 lung
NCI/ADR-RES ovarian = test system: NCI/ADR-RES ovarian
MCF7 breast = test system: MCF7 breast
UO-31 renal = test system: UO-31 renal
MDA-MB-435 = test system: MDA-MB-435
SNB-19 CNS = test system: SNB-19 CNS
OVCAR-4 ovarian = test system: OVCAR-4 ovarian
EKVX NSCLC = test system: EKVX NSCLC
SW-620 colon = test system: SW-620 colon
CCRF-CEM leukemia = test system: CCRF-CEM leukemia
BT-549 breast = test system: BT-549 breast
SK-MEL-2 melanoma = test system: SK-MEL-2 melanoma
CAKI-1 renal = test system: CAKI-1 renal
SR leukemia = test system: SR leukemia
IGROV1 ovarian = test system: IGROV1 ovarian
U251 CNS = test system: U251 CNS
SK-MEL-28 melanoma = test system: SK-MEL-28 melanoma
SNB-75 CNS = test system: SNB-75 CNS
NCI-H23 lung = test system: NCI-H23 lung
SK-OV-3 ovarian = test system: SK-OV-3 ovarian
A549 NSCLC = test system: A549 NSCLC
HCT-116 colon = test system: HCT-116 colon
HL-60(TB) leukemia = test system: HL-60(TB) leukemia
OVCAR-8 ovarian = test system: OVCAR-8 ovarian
MDA-MB-231 breast = test system: MDA-MB-231 breast
MOLT-4 leukemia = test system: MOLT-4 leukemia
HS 578T breast = test system: HS 578T breast
NCI-H226 lung = test system: NCI-H226 lung
SF-268 CNS = test system: SF-268 CNS
HCT-15 colon = test system: HCT-15 colon
MALME-3M melanoma = test system: MALME-3M melanoma
RXF 393 renal = test system: RXF 393 renal
COLO 205 colon = test system: COLO 205 colon
SF-295 CNS = test system: SF-295 CNS
LOX IMVI melanoma = test system: LOX IMVI melanoma
DU-145 prostate = test system: DU-145 prostate
T-47D breast = test system: T-47D breast
UACC-257 melanoma = test system: UACC-257 melanoma
HCC-2998 colon = test system: HCC-2998 colon
ACHN renal = test system: ACHN renal

CC(=O)[C@@]1(O)[C@H](C)C[C@H]2[C@@H]3C=C(C)C4=Cc5c(cnn5-c5ccccc5)C[C@]4(C)[C@H]3[C@@H](O)C[C@@]21C
GI50 (A498 renal): 3.45 µM
TGI (A498 renal): 14.7 µM
GI50 (HOP-92 NSCLC): 2.42 µM
TGI (HOP-92 NSCLC): 14 µM
GI50 (SK-MEL-5 melanoma): 1.61 µM
TGI (SK-MEL-5 melanoma): 4.21 µM
GI50 (SN12C renal): 1.4 µM
TGI (SN12C renal): 12.4 µM
GI50 (HOP-62 NSCLC): 3.58 µM
TGI (HOP-62 NSCLC): 9.75 µM
GI50 (UACC-62 melanoma): 2.24 µM
TGI (UACC-62 melanoma): 5.76 µM
GI50 (TK-10 renal): 1.97 µM
TGI (TK-10 renal): 6.08 µM
GI50 (HT29 colon): 0.946 µM
TGI (HT29 colon): 4.38 µM
GI50 (PC-3 prostate): 2.06 µM
TGI (PC-3 prostate): 10.1 µM
GI50 (OVCAR-5 ovarian): 1.52 µM
TGI (OVCAR-5 ovarian): 5.76 µM
GI50 (KM12 colon): 1.69 µM
TGI (KM12 colon): 4.5 µM
GI50 (SF-539 CNS): 1.22 µM
TGI (SF-539 CNS): 2.85 µM
GI50 (M14 melanoma): 2.84 µM
TGI (M14 melanoma): 13.6 µM
GI50 (K-562 leukemia): 0.659 µM
GI50 (786-0 renal): 2.23 µM
TGI (786-0 renal): 5.2 µM
GI50 (OVCAR-3 ovarian): 2.08 µM
TGI (OVCAR-3 ovarian): 4.84 µM
GI50 (NCI-H460 lung): 1.4 µM
TGI (NCI-H460 lung): 3.69 µM
GI50 (NCI-H522 lung): 2.83 µM
TGI (NCI-H522 lung): 8.85 µM
GI50 (NCI/ADR-RES ovarian): 1.91 µM
TGI (NCI/ADR-RES ovarian): 9.75 µM
GI50 (MCF7 breast): 1.97 µM
TGI (MCF7 breast): 11 µM
GI50 (UO-31 renal): 2.08 µM
TGI (UO-31 renal): 7.03 µM
GI50 (MDA-MB-435): 2.44 µM
TGI (MDA-MB-435): 8.7 µM
GI50 (SNB-19 CNS): 3.29 µM
TGI (SNB-19 CNS): 14.2 µM
GI50 (OVCAR-4 ovarian): 3.85 µM
TGI (OVCAR-4 ovarian): 31.1 µM
GI50 (EKVX NSCLC): 1.25 µM
TGI (EKVX NSCLC): 11.4 µM
GI50 (SW-620 colon): 1.91 µM
TGI (SW-620 colon): 4.27 µM
TGI (CCRF-CEM leukemia): 1.72 µM
GI50 (BT-549 breast): 1.29 µM
TGI (BT-549 breast): 5.17 µM
GI50 (SK-MEL-2 melanoma): 2.45 µM
TGI (SK-MEL-2 melanoma): 5.88 µM
GI50 (CAKI-1 renal): 2.46 µM
TGI (CAKI-1 renal): 6.44 µM
GI50 (SR leukemia): 1.77 µM
GI50 (IGROV1 ovarian): 2.64 µM
TGI (IGROV1 ovarian): 11 µM
GI50 (U251 CNS): 1.51 µM
TGI (U251 CNS): 6.23 µM
GI50 (SK-MEL-28 melanoma): 3.22 µM
TGI (SK-MEL-28 melanoma): 13 µM
GI50 (SNB-75 CNS): 2.65 µM
TGI (SNB-75 CNS): 11 µM
GI50 (NCI-H23 lung): 2.48 µM
TGI (NCI-H23 lung): 9.96 µM
GI50 (SK-OV-3 ovarian): 0.76 µM
TGI (SK-OV-3 ovarian): 10.5 µM
GI50 (A549 NSCLC): 1.82 µM
TGI (A549 NSCLC): 13.9 µM
GI50 (HCT-116 colon): 2.46 µM
TGI (HCT-116 colon): 11.4 µM
GI50 (HL-60(TB) leukemia): 3.62 µM
TGI (HL-60(TB) leukemia): 41.9 µM
GI50 (OVCAR-8 ovarian): 2.8 µM
TGI (OVCAR-8 ovarian): 13.8 µM
GI50 (MDA-MB-231 breast): 2.04 µM
TGI (MDA-MB-231 breast): 5.4 µM
GI50 (MOLT-4 leukemia): 0.842 µM
TGI (MOLT-4 leukemia): 8.7 µM
GI50 (HS 578T breast): 2.97 µM
TGI (HS 578T breast): 12.9 µM
GI50 (NCI-H226 lung): 2.5 µM
TGI (NCI-H226 lung): 15.7 µM
GI50 (SF-268 CNS): 2.81 µM
TGI (SF-268 CNS): 16.6 µM
GI50 (HCT-15 colon): 0.81 µM
TGI (HCT-15 colon): 2.66 µM
GI50 (MALME-3M melanoma): 1.76 µM
TGI (MALME-3M melanoma): 5.36 µM
GI50 (RXF 393 renal): 1.31 µM
TGI (RXF 393 renal): 6.42 µM
GI50 (COLO 205 colon): 1.86 µM
TGI (COLO 205 colon): 3.93 µM
GI50 (SF-295 CNS): 1.73 µM
TGI (SF-295 CNS): 3.53 µM
GI50 (LOX IMVI melanoma): 1.69 µM
TGI (LOX IMVI melanoma): 4.6 µM
GI50 (DU-145 prostate): 3.24 µM
TGI (DU-145 prostate): 14 µM
GI50 (T-47D breast): 2.3 µM
TGI (T-47D breast): 10.3 µM
GI50 (UACC-257 melanoma): 4.06 µM
TGI (UACC-257 melanoma): 13.4 µM
GI50 (HCC-2998 colon): 2.13 µM
TGI (HCC-2998 colon): 5.73 µM
GI50 (ACHN renal): 2.75 µM
TGI (ACHN renal): 11.3 µM
